Laboratory results published in patent publication US7956041B2, “Prophylactic and therapeutic agent of diabetes mellitus” (Ajinomoto Co., Inc., priority 2002, dated 2011).

Experiments:
[1] = system: Renal brush border membrane; assay: Test Example 1A: inhibitory action of 14C-D-glucose uptake; assay type: biochemical; details: rat renal brush border membrane, 37° C., 30 minutes preincubation
Description: Test compounds were dissolved in 100 mM mannitol-10 mM HEPES/Tris, pH 7.4 to prepare solutions at various concentrations.
Renal brush border membrane was prepared from a rat kidney, to which a solution of a test compound was added for incubation at 37° C. for 30 minutes. Then, ^14C-D-glucose was added for incubation for one minute. A solution containing 1 mM phlorizin was used to terminate the glucose uptake reaction. The radioactivity ^14C of ^14C-D-glucose incorporated in the renal brush border membrane was counted with a liquid scintillation counter. The glucose uptake independent on sodium was reduced from the glucose uptake in a control group or a test group, to calculate the inhibition intensity.

Male Wistar rats [2] = assay: Test Example 1: evaluation of urine sugar excretion action in rats; assay type: in vivo, rat; details: 100 mg/kg p.o. in olive oil, urine collected 24 hours, per individual per day
Description: Male Wistar rats aged 5 weeks (purchased from Charles River Japan, Inc.) were acclimatized in metabolic cages for one week, for use at this experiment. The test compounds suspended in olive oil were prepared into a 20 mg/ml solution to a dose of 5 ml per 1 kg rat body weight.
After the rats were starved for 4 hours, the test compounds were orally given at 100 mg/kg to the rats at 11 am. Immediately after dosing until 24 hours later, urine was collected. The volume of urine was measured. Then, urine sugar concentration was assayed by glucose oxidase method, to calculate the glucose excretion into urine per individual per day.

[3] = system: glucose-loaded rats (Wistar rats); assay: Example I: blood glucose time course after oral glucose loading in rats; assay type: in vivo, rat; details: glucose 1 g/kg p.o., FIG. 2
Description: Wistar rats (age of 7 weeks; male) were divided into groups with matched body weights. After 17-hour starvation, glucose was orally given at 1 g/kg to the animals. Immediately after the administration, the inhibitor A of renal glucose reabsorption or the inhibitor B of renal glucose reabsorption (A at 30 mg/kg or 60 mg/kg; B at 30 mg/kg or 80 mg/kg) or glibenclamide (1 mg/kg or 2 mg/kg) or nateglinide (50 mg/kg or 80 mg/kg) was orally given. Additionally, a group on the combined use of both of an inhibitor of renal glucose reabsorption and a hypoglycemic agent was also prepared. A vehicle was orally given to a control group after glucose administration.
Blood glucose was measured in a time course.

Male Wistar rats [4] = assay: Test Example 1B: excretion action of urine sugar in rat; assay type: in vivo; details: oral administration, Dose 10 mg/kg, 24 hours
Description: Male Wistar rats aged 5 weeks (purchased from Charles River Japan, Inc.) were acclimatized in metabolic cages for one week, for use at this experiment. The test compounds suspended in olive oil were prepared into solutions to a dose of 5 ml per 1 kg rat body weight. After the rats were starved for 4 hours, the test compounds were orally given at 10, 30 and 100 mg/kg to the rats at 11 am. Immediately after dosing until 24 hours later, urine was collected. The volume of urine was measured. Then, urine glucose concentration was assayed by glucose oxidase method, to calculate the glucose excretion into urine per individual per day. As a positive control, 3-(5-benzo[b]furanyl)-2′-(6-o-methoxycarbonyl-β-D-glucopyranosyloxy)-6′-hydroxy-4′-methylpropiophenone [under a different name of 3-(benzo[b]furan-5-yl)-2′,6′-dihydroxy-4′-methylpropiophenone 2′-o-(6-o-methoxycarbonyl-β-D-glucopyranoside)] was used.

[5] = system: Type 2 diabetes model db/db mice; assay: Example IV: nateglinide load test after 25 days of dosing in db/db mice; assay type: in vivo, mouse; details: db/db mice after long-term inhibitor B 80 mg/kg twice daily; compared with vehicle-dosed and nateglinide-dosed groups
Description: Type 2 diabetes model db/db mice (age 6 weeks) were fed and kept with a feed twice daily over one hour starting 9 am and one hour starting 3 pm, for one week. Then, the mice were divided into groups with matched blood glucose levels and body weights. Subsequently, the inhibitor B of renal glucose reabsorption at 80 mg/kg or nateglinide at 80 mg/kg was orally given, immediately before feeding twice daily. Only a vehicle was orally given immediately before feeding twice daily to the animals of a control group. […] Blood glucose levels were measured before and after the administration, to examine whether or not the hypoglycemic action of nateglinide could be observed (nateglinide load test).

Question: Which Inhibition intensity ([1]; concentration of test compound 10 μM) does the source give for CSc1ccc(Cc2c(O[C@@H]3O[C@H](CO)[C@@H](O)[C@H](O)[C@H]3O)n[nH]c2C(F)(F)F)cc1 [Production Example 1-A, 4-((4-methylthiophenyl)methyl)-5-(trifluoromethyl)-1H-pyrazole-3-o-β-D-glucopyranoside] here?
Answer: Its Inhibition intensity is 84% (10 μM).

Question: CCc1ccc(Cc2c(OC3OC(COC(=O)OC)C(O)C(O)C3O)nn(C3CCC3)c2C(F)(F)F)cc1 [Production Example 2, 1′-cyclobutyl-4′-[(4-ethylphenyl)methyl]-5′-trifluoromethyl-1H-pyrazole-3′-o-(6-carbomethoxy)-β-D-glucopyranoside] was tested. Which Urine sugar excretion (Male Wistar rats [2]) did it give?
Answer: The Urine sugar excretion was 656 mg.

Question: With CCc1ccc(Cc2c(O[C@@H]3O[C@H](C(=O)O)[C@@H](O)[C@H](O)[C@H]3O)n[nH]c2C(F)(F)F)cc1 [Production Example 2-A, 4-((4-ethylphenyl)methyl)-5-(trifluoromethyl)-1H-pyrazol-3-yl-β-D-glucopyranoside uronic acid] as the molecule, how does the Inhibition intensity ([1]; concentration of test compound 100 μM) read?
Answer: Its Inhibition intensity is 30% (100 μM).

Question: What does the source list for COC(=O)OC[C@H]1O[C@@H](Oc2cc(C)cc(O)c2C(=O)CCc2ccc3occc3c2)[C@H](O)[C@@H](O)[C@@H]1O [3-(5-benzo[b]furanyl)-2′-(6-o-methoxycarbonyl-β-D-glucopyranosyloxy)-6′-hydroxy-4′-methylpropiophenone]?
Answer: Blood glucose 180 minutes after glucose loading and thereafter ([3]; inhibitor B 30 mg/kg alone or with nateglinide 50 mg/kg p.o., vs vehicle): lower than that in the vehicle-dosed group; Pattern of glycemic suppression at increased dose ([3]; nateglinide 80 mg/kg, inhibitor B 80 mg/kg): This pattern of glycemic suppression was also observed in the group with the increase of the dose; Excreted urine sugar (Male Wistar rats [4]): 2 mg; Hyperglycemia 30 minutes after loading with glucose and nateglinide (in words) [5]: nateglinide greatly suppressed hyperglycemia due to glucose loading

Question: How did the Urine sugar excretion (Male Wistar rats [2]) turn out when CCc1ccc(Cc2c(OC3OC(COC(=O)OC)C(O)C(O)C3O)nn(C3CCCC3)c2C(F)(F)F)cc1 [Production Example 4, 1′-cyclopentyl-4′-[(4-ethylphenyl)methyl]-5′-trifluoromethyl-1H-pyrazole-3′-o-(6-carbomethoxy)-β-D-glucopyranoside] was run?
Answer: The Urine sugar excretion was 452 mg.
